Measurements published in patent US20250280828A1, “FUNGICIDAL COMPOSITIONS” (SYNGENTA CROP PROTECTION AG, priority 2020, published 2025).

Test system: Phakopsora pachyrhizi
Experiment: Preventative control against Phakopsora pachyrhizi (Asian soybean rust) / soybean / leaf disc
Type: in vivo
Conditions: foliar, evaluation 11 to 14 days after inoculation, read-out: Combined inhibition (observed); for inhibition at 0.4 g/ha: single active ingredient at 0.4 g/ha; for inhibition at 0.8 g/ha: single active ingredient at 0.8 g/ha
Method: Whole soybean plants are treated with the recited compositions of active ingredients four weeks after planting. One day after spraying application leaf discs are cut from the first trifoliate leaf. Five repetitions at each rate are conducted. The leaf discs are inoculated with Phakopsora pachyrhizi one day after treatment. Evaluation of the leaf discs is conducted 11 to 14 days after inoculation and the biological activity is derived from the relation of the treated compared to untreated, infested check plants. The rates of the active ingredients used are given in Tables 1 to 6 as g active ingredient (a.i.)/ha. Results from the tests outlined above are shown below in Tables 1 to 6. […] According to COLBY, in mathematical terms the synergism factor SF corresponds to O/E. In the agricultural practice an SF of […] indicates significant improvement over the purely complementary addition of activities (expected activity), while an SF of ≤0.9 in the practical application routine signals a loss of activity compared to the expected activity.

Row | Structure (SMILES) | inhibition at 0.2 g/ha (single active ingredient at 0.2 g/ha) [%] | inhibition at 0.4 g/ha [%] | inhibition at 0.8 g/ha [%]
1 | CCC(=O)Oc1c(OC)ccnc1C(=O)N[C@@H](C)C(=O)O[C@@H](C)[C@@H](C)c1ccccc1C [A.03, [(1S,2S)-1-methyl-2-(o-tolyl)propyl](2S)-2-[(4-methoxy-3-propanoyloxy-pyridine-2-carbonyl)amino]propanoate] | 0 | 10 | 42
2 | CON(Cc1ccc(-c2noc(C(F)(F)F)n2)cc1)C(=O)C1CC1 [B.01, N-methoxy-N-[[4-[5-(trifluoromethyl)-1,2,4-oxadiazol-3-yl]phenyl]methyl]cyclopropanecarboxamide] | – | – | 65
3 | COC(C)C(=O)N(Cc1ccc(-c2noc(C(F)(F)F)n2)cc1)OC (stereo not shown) [B.02, N,2-dimethoxy-N-[[4-[5-(trifluoromethyl)-1,2,4-oxadiazol-3-yl]phenyl]methyl]propanamide] | – | 64 | –
4 | CCN(Cc1ccc(-c2noc(C(F)(F)F)n2)cc1)C(=O)C(C)C [B.03, N-ethyl-2-methyl-N-[[4-[5-(trifluoromethyl)-1,2,4-oxadiazol-3-yl]phenyl]methyl]propanamide] | – | 21 | 55
5 | CNC(=O)N(Cc1ccc(-c2noc(C(F)(F)F)n2)cc1)OC [B.04, 1-methoxy-3-methyl-1-[[4-[5-(trifluoromethyl)-1,2,4-oxadiazol-3-yl]phenyl]methyl]urea] | – | 44 | –
6 | CCNC(=O)N(Cc1ccc(-c2noc(C(F)(F)F)n2)cc1)OC [B.06, 3-ethyl-1-methoxy-1-[[4-[5-(trifluoromethyl)-1,2,4-oxadiazol-3-yl]phenyl]methyl]urea] | – | 22 | –
7 | CCOC(=O)c1cnn(Cc2ccc(-c3noc(C(F)(F)F)n3)cc2)c1 [B.10, ethyl 1-[[4-[5-(trifluoromethyl)-1,2,4-oxadiazol-3-yl]phenyl]methyl]pyrazole-4-carboxylate] | – | 55 | –
